Laboratory results from ChEMBL document CHEMBL1201862, “PubChem BioAssay data set” (2004).
Active and inactive are the calls of the source.

Columns and labels:
cells [1] = type: functional, cell-based
cells [2] = type: functional, cell-based; remark: listed apart in the source
[3] = target: T1, Corticotropin-releasing factor receptor 2/Corticotropin-releasing factor-binding protein (Homo sapiens, UniProt P24387+Q13324); assay: Dose Response confirmation of uHTS hits for small molecule antagonists of the CRF-binding protein and CRF-R2 receptor complex.; type: functional; details: read-out: IC50_Mean
T1 sequence (Q13324 whole entry): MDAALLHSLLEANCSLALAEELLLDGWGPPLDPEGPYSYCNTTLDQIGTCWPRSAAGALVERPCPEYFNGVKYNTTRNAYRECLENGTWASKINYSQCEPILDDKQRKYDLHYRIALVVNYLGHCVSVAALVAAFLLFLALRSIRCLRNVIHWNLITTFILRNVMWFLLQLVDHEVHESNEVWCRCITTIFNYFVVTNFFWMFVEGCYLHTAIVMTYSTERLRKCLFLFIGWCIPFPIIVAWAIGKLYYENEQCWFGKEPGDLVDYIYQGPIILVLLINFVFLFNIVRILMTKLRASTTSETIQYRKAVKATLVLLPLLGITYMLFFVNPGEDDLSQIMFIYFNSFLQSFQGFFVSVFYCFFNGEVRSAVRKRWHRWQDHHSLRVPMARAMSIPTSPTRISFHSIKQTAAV
T1 sequence (P24387 whole entry): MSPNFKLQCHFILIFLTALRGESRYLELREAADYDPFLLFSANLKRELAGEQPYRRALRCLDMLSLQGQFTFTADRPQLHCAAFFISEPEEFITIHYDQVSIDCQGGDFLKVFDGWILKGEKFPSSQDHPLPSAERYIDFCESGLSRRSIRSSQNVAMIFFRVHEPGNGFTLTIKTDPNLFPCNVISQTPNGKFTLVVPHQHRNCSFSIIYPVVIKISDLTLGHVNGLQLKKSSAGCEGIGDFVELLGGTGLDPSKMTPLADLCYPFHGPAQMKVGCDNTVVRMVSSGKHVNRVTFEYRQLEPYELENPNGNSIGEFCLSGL

[4] = target: T1, Corticotropin-releasing factor receptor 2/Corticotropin-releasing factor-binding protein; assay: activators of CRF receptor 2 with binding protein – uHTS hits, confirmation (AID 602473); type: functional; details: read-out: EC50_Mean
[5] = off-target signal loss in HeLa-CEM21 co-culture – HeLa F-luc CTL cells, cherry-picked, counter-screen for HIV-1 Env fusion inhibitor project, dose response (AID 652040); type: functional, cell-based;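 note: potency for signal decrease marking cytotoxic or nonspecific inhibition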
[6] = ZM109 Env clade C HIV-1 fusion inhibitors, dose response, HeLa effector, CEM target cells, luciferase, cherry-pick (AID 652058); type: functional, cell-based
[7] = inhibitors of HIV Env-driven cell fusion, dose response, cherry-pick (AID 652057); type: functional, cell-based
[8] = control 3'UTR Renilla luciferase suppression, dose response, counter-screen for Shn3 inhibitor project, cell-based, Clone20-Shn3RL, cherry-picked (AID 624133); type: functional
[9] = HepG2 cell cytotoxicity, dose response, cytotoxicity control for Shn3 inhibitor project, CellTiter-Glo, cherry-picked (AID 624134); type: functional, cell-based
[10] = Shn3 3'UTR reporter inhibitors, dose response, cell-based, Clone20 osteoblasts, firefly luciferase, cherry-picked (AID 624132); type: functional;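 note: firefly luciferase luminescence from reporter carrying the Shn3 3'UTR in osteoblasts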
H4 = assay: Luminescence Cell-Based Dose Response HTS to Identify Activators of 5'UTR Stem-Loop Driven Prion Protein mRNA Translation in H4 Neuroglioblastoma Cells. [Related pubchem assays: 1829 (Project Summary), 1814 (Primary HTS)]; type: functional; details: Homo sapiens
[11] = Luminescence Cell-Based Dose Response HTS to Identify Activators of Luciferase Translation or Activity in H4 […] Cells. [Related pubchem assays: 1829 (Project Summary), 1814 (Primary HTS)]; type: functional
[12] = target: Induced myeloid leukemia cell differentiation protein Mcl-1 (Homo sapiens, UniProt Q07820); type: functional
Induced myeloid leukemia cell differentiation protein Mcl-1, sequence (Q07820 whole entry): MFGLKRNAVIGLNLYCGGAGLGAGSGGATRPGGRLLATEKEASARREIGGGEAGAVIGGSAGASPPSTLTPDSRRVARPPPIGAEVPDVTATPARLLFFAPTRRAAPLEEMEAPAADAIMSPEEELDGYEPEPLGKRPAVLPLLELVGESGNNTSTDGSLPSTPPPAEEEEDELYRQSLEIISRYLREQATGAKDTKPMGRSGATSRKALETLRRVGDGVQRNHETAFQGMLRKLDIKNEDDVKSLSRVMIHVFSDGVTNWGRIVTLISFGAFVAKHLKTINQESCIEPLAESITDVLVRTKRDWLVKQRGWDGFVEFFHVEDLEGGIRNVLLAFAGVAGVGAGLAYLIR

[13] = Luminescence Cell-Based Dose Confirmation HTS to Identify Activators of 5'UTR Stem-Loop Driven Alpha-Synuclein mRNA Translation in H4 Neuroglioblastoma Cells. [Related pubchem assays: 1829 (Project Summary), 1814 (Primary HTS)]; type: functional
[14] = inhibitors of clade B AD8 Env fusion, dose response, cell-based, cherry-pick (AID 652062); type: functional;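 note: luciferase signal from cell-cell fusion driven by HIV-1 clade B AD8 Env; potency is for inhibitors of fusion seen as a drop in luminescence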
Fatty acid synthase [15] = target: T2, Fatty acid synthase (Homo sapiens, UniProt P49327); assay: FAS thioesterase domain inhibitors, dose response, biochemical, kinetic fluorescence intensity (AID 624326); type: functional;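 note: rate of fluorescence rise from hydrolysis of a fluorogenic O-methyl fluorescein ester substrate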
T2 sequence (P49327 whole entry, the tested form may be a part): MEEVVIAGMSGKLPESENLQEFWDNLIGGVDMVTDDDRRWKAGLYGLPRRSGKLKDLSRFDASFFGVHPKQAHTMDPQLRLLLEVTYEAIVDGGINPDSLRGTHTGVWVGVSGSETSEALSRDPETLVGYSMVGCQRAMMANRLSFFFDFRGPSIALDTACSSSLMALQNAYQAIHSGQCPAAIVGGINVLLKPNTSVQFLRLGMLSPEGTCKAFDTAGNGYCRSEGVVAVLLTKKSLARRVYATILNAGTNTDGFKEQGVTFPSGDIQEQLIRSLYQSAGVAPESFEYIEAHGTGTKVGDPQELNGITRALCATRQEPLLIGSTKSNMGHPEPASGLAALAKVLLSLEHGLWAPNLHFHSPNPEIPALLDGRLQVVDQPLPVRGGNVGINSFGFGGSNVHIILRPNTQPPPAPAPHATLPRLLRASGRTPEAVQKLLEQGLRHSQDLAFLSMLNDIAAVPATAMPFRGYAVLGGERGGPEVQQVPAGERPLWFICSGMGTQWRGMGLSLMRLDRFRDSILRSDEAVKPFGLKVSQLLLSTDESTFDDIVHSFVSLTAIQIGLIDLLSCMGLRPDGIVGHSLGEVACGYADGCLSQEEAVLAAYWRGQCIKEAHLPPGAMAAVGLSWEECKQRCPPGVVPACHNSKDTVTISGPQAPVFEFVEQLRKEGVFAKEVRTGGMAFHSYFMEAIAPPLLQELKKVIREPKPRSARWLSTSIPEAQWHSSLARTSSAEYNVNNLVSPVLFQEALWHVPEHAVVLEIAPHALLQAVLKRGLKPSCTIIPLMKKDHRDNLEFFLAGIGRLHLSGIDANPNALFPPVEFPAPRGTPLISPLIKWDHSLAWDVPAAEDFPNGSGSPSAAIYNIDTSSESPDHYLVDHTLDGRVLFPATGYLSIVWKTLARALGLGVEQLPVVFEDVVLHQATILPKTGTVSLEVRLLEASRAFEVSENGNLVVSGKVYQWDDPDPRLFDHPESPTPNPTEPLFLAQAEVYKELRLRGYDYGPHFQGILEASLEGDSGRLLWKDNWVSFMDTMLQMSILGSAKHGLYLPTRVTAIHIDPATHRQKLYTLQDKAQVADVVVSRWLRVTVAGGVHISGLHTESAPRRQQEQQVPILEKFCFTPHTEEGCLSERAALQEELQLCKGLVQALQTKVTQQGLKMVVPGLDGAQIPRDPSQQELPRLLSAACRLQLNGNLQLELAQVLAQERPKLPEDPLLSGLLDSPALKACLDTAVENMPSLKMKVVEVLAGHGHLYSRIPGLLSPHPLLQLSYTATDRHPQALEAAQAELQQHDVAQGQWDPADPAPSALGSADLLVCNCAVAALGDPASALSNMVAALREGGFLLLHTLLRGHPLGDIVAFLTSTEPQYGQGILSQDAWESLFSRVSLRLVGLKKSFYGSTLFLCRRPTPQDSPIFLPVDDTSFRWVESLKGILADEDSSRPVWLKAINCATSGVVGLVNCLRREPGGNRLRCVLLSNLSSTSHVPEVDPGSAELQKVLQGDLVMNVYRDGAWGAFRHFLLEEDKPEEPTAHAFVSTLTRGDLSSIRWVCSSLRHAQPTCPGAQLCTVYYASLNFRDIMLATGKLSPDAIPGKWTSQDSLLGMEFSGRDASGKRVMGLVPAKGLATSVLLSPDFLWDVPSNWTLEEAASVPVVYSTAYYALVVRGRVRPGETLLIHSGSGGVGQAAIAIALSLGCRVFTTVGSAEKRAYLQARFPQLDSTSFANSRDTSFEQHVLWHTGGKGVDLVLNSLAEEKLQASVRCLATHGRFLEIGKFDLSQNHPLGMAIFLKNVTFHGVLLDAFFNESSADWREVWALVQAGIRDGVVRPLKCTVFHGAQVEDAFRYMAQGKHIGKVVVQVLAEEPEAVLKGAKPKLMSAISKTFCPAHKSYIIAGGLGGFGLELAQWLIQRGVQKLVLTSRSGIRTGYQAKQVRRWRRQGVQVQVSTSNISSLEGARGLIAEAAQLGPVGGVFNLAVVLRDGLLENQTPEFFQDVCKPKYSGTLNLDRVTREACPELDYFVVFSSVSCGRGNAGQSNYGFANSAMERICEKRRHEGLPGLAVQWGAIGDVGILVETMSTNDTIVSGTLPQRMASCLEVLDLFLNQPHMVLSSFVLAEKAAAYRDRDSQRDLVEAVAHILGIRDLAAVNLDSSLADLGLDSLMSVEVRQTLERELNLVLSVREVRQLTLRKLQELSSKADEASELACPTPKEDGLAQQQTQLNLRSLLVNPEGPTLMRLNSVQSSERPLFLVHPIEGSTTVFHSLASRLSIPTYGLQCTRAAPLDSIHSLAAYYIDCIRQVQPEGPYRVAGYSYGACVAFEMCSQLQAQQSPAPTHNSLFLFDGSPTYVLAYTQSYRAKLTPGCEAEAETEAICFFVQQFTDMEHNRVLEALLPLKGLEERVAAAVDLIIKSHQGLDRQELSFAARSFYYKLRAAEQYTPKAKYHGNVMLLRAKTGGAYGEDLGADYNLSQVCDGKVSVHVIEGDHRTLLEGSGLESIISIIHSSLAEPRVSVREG

Fatty acid synthase [16] = target: T2, Fatty acid synthase; assay: FAS thioesterase domain inhibitors, dose response, biochemical, endpoint fluorescence intensity, uHTS hits (AID 624327); type: functional;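 note: fluorescence from hydrolysis of an O-methyl fluorescein acyl ester substrate by the enzyme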
[17] = target: FAD-linked sulfhydryl oxidase ALR (Homo sapiens, UniProt P55789); assay: inhibitors of human ALR sulfhydryl oxidase, dose response, biochemical, H2O2 detection, luminescence, cherry-pick (AID 493248)
FAD-linked sulfhydryl oxidase ALR, sequence (P55789 whole entry): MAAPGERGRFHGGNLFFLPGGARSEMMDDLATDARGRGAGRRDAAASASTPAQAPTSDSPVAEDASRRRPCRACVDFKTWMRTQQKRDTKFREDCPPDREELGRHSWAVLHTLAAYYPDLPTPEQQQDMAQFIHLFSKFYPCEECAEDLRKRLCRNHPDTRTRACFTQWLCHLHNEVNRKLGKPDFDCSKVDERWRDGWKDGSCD

[18] = target: T3, Zinc finger protein mex-5 (Caenorhabditis elegans, UniProt Q9XUB2); assay: MEX-5/TCR-2 RNA interaction inhibitors, dose response, biochemical, C. elegans, fluorescence polarization (AID 1960)
T3 sequence (Q9XUB2 whole entry): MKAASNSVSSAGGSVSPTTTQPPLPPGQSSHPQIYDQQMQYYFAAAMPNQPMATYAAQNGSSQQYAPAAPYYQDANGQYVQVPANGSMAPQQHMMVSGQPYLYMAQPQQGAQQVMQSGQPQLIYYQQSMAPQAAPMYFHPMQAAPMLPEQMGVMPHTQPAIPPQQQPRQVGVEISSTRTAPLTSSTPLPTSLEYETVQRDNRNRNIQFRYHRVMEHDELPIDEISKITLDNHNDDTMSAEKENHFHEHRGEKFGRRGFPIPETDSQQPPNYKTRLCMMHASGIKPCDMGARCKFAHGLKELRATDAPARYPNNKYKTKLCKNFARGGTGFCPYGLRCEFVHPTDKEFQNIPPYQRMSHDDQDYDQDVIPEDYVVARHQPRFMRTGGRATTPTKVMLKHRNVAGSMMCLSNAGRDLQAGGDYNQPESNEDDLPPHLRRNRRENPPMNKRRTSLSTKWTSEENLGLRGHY

[19] = Luminescence Cell-Based Dose Retest to Confirm Inhibitors of Cancer Stem Cells. [Related pubchem assays (depositor defined):AID2717, AID2721]; type: functional; details: Homo sapiens
[20] = target: T4, RNA-binding protein pos-1 (Caenorhabditis elegans, UniProt G5EF15); assay: inhibitors of POS-1/mex-3 RNA binding, dose response, biochemical, fluorescence polarization (AID 1964);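 note: purified POS-1 fused to maltose binding protein made in E. coli; potency of compounds blocking POS-1 binding to fluorescent RNA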
T4 sequence (G5EF15 whole entry): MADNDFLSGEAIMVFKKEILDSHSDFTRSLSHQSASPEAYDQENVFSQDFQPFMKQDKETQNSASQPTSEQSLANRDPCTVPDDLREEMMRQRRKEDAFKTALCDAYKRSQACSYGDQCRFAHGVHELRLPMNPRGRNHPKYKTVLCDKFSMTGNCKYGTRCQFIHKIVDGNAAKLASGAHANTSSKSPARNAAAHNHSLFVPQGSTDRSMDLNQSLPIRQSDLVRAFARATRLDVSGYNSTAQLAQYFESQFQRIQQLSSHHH

INS1 = assay: beta cell apoptosis inhibitors, cytokine rescue, dose response, luminescence, retest (AID 449756); type: functional, cell-based; details: Rattus norvegicus;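 note: cell death triggered by IL-1 beta plus TNF-alpha plus IFN-gamma mixture; protective hits raise ATP signal compared with cytokine alone wells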

## CCOP(=O)(C#CC(C)(C)C)C1(O)CCCCC1 (centres undefined)
Cells [1]
  EC50: > 350 µM (not active)
Cells [2]
  EC50: > 350 µM (not active)

## COc1cc2nc(SCc3c(C)noc3C)n(CCC3=CCCCC3)c(=O)c2cc1OC
[3]
  IC50: > 47.1 µM (inactive)
[4]
  EC50: > 53 µM (inactive)

## O=C(C1CCCCC1)N1CCCC(c2nc(O)c3nnn(Cc4ccccc4)c3n2)C1 (centres undefined)
[5]
  AC50: > 70 µM (inactive)
[6]
  AC50: 18.5 µM (active)
[7]
  AC50: 11.1 µM (active)

## CCN(CC)S(=O)(=O)c1ccc(-c2ccc(S(=O)(=O)N(CC)CC)cc2)cc1
[8]
  AC50: 3.13 µM (active)
[9]
  AC50: 6.43 µM (active)
[10]
  AC50: 3.81 µM (active)

## CC(C)(C)C1=CC=C(C(C)(C)C)C(=O)C1=O
H4
  EC50: > 120 µM (not active)
[11]
  EC50: > 120 µM (not active)
[12]
  IC50: 3.86 µM (active)
[13]
  EC50: > 120 µM (not active)

## COC(=O)[C@@]12CCCN1[C@H](c1ccc(-c3ccc(F)cc3)c(OC)c1)[C@H]1C(=O)N(C)C(=O)[C@H]12
[6]
  AC50: 1.38 µM (active)
[7]
  AC50: 2.93 µM (active)
[14]
  AC50: 25.5 µM (active)

## CCc1cccc(NC(=O)C2CCN(S(=O)(=O)c3ccc4c(c3)CC(C)N4C(C)=O)CC2)c1 (centres undefined)
[5]
  AC50: 48.5 µM (active)
[6]
  AC50: 6.68 µM (active)
[7]
  AC50: 30.3 µM (active)
[14]
  AC50: 10.6 µM (active)

## O=C1[C@H]2[C@@H](c3ccc(F)cc3)N3C(=O)N(c4ccccc4)C(=O)[C@@]3(Cc3ccccc3)[C@H]2C(=O)N1C1CCCCC1
[8]
  AC50: 31.3 µM (active)
Fatty acid synthase [15]
  IC50: 11 µM (active)
[9]
  AC50: 64.9 µM (active)
Fatty acid synthase [16]
  IC50: 17.5 µM (active)
[10]
  AC50: > 70 µM (inactive)

## CC[C@@]12C(=O)N(c3ccc(OC)cc3)C(=O)N1[C@H](c1ccc(Cl)cc1)[C@@H]1C(=O)N(C3CCCCC3)C(=O)[C@@H]12
[5]
  AC50: 0.407 µM (active)
[6]
  AC50: 0.379 µM (active)
[7]
  AC50: < 0.26 µM (active)
[14]
  AC50: 0.607 µM (active)

## COC(=O)C(CC(=O)Nc1cc(C)ccc1C)Nc1ccccc1OC (centres undefined)
[3]
  IC50: > 47.1 µM (inactive)
[4]
  EC50: > 53 µM (inactive)
[17]
  AC50: 13.1 µM (active)

## CC(=O)N1c2ccc(S(=O)(=O)N3CCC(C(=O)Nc4cccc(F)c4)CC3)cc2CC1C (centres undefined)
[8]
  AC50: 12 µM (active)
[9]
  AC50: 48.7 µM (active)
[10]
  AC50: 4.54 µM (active)

## COc1cc(C(=O)NCCc2nc3ccccc3n2C)cc(OC)c1OC
Cells [1]
  EC50: > 350 µM (not active)
Cells [2]
  EC50: > 350 µM (not active)

## CCn1c(SCC(=O)Nc2nncs2)nnc1-c1ccco1
Cells [1]
  EC50: > 350 µM (not active)
Cells [2]
  EC50: > 350 µM (not active)

## CC(=O)Nc1sc(-c2ccccc2)nc1-c1ccccc1
Cells [1]
  EC50: > 350 µM (not active)
Cells [2]
  EC50: > 350 µM (not active)

## CNc1sc(C(=O)c2ccc(F)cc2)c(N)c1-c1nc2ccccc2s1
[12]
  IC50: 2.45 µM (active)

## C/C=C\C=C/C(=O)Nc1cccc(C2=NOC3(C2)C[C@@H](C(N)=O)N(C(=O)c2ccccc2)C3)c1 (some centres undefined)
[12]
  IC50: 6.9 µM (not active)

## Cc1nn(-c2ccccc2)c(NC(=O)c2cccs2)c(-c2ccccc2Cl)c1=O
[3]
  IC50: > 47.1 µM (inactive)
[4]
  EC50: > 53 µM (inactive)

## Cc1ccc(-n2nc3c(c2NC(=O)c2ccco2)C[S+]([O-])C3)cc1 (centres undefined)
[5]
  AC50: 7.72 µM (active)

## Cc1ccc(S(=O)(=O)N(C)C)cc1NC(=O)COc1ccccc1C(=O)Nc1ccccc1
[5]
  AC50: 3.87 µM (active)
[6]
  AC50: 2.56 µM (active)
[7]
  AC50: 1.78 µM (active)
[14]
  AC50: 8.41 µM (active)

## O=C(c1ccccc1)C(CN1CCCCC1)c1ccccc1 (centres undefined)
[8]
  AC50: 5.56 µM (active)
[9]
  AC50: 15.7 µM (active)
[10]
  AC50: 2.41 µM (active)

## CCN1C(=O)[C@H]2[C@@H](c3ccc(C)cc3)N3C(=O)N(c4cccc(Br)c4)C(=O)[C@@]3(CC(C)C)[C@H]2C1=O
[5]
  AC50: 0.382 µM (active)
[6]
  AC50: 0.374 µM (active)
[7]
  AC50: 0.26 µM (active)
[14]
  AC50: 0.672 µM (active)

## CC1CCN(C(=O)C2CCN(S(=O)(=O)c3cccs3)CC2)CC1
[3]
  IC50: > 47.1 µM (inactive)
[4]
  EC50: > 53 µM (inactive)

## CCCCCCCCNS(=O)(=O)CCNCc1ccc(OC)cc1
[3]
  IC50: > 47.1 µM (inactive)
[4]
  EC50: > 53 µM (inactive)

## CCCCCNC1=CC(=O)CC(c2ccccc2)C1 (centres undefined)
[3]
  IC50: > 47.1 µM (inactive)
[4]
  EC50: > 53 µM (inactive)

## COc1ccc(S(=O)(=O)Nc2ccc3c(c2)CC(=O)N([C@H](C)CO)C[C@H](C)[C@H](CN(C)S(=O)(=O)c2ccc(F)cc2)O3)cc1
[7]
  AC50: 0.384 µM (active)
[14]
  AC50: 10.6 µM (active)

## O=C(CCSc1nc2ccccc2s1)N/N=C/c1c(O)ccc2ccccc12
[18]
  EC50: 14.6 µM (active)
Cells [1]
  EC50: 8.97 µM (active)
[19]
  AC50: 4.52 µM (active)
[20]
  EC50: 21.2 µM (active)
Cells [2]
  EC50: 31.3 µM (active)
INS1
  AC50: 1.95 µM (active)

## Cc1ccc(/C=N/NC(=O)CN2CCN(Cc3ccccc3Cl)CC2)o1
Cells [1]
  EC50: > 350 µM (not active)
Cells [2]
  EC50: > 350 µM (not active)
